Results as given in publication PMC11870035, “Discovery of Substituted 5-(2-Hydroxybenzoyl)-2-Pyridone Analogues as Inhibitors of the Human Caf1/CNOT7 Ribonuclease” (Molecules, 2024).
Read-outs that look alike come from different tables or passages of the source.

What was measured:
[1] = biological target: T1, human nuclease enzyme Caf1/CNOT7 (Homo sapiens, UniProt Q9UIV1); test: fluorescence-based nuclease activity assay; type: biochemical; conditions: for IC50: mean ± standard error, 0.4 µM Caf1/CNOT7, 1 µM Flc-RNA substrate, 30 °C, 60 min, read-out: IC50 versus Caf1/CNOT7; for fold lower potency compared to 1: ratio of IC50 values versus compound 1
Experimental: Purity of the compounds was verified by LC-MS. The inhibitory activity of the compounds was assessed using a fluorescence-based activity assay described before. Briefly, purified Caf1/CNOT7 was pre-incubated in the presence of compound or vehicle only (DMSO) before addition of a Fluorescein-labelled RNA oligonucleotide substrate. The composition of the final reaction mixture (10 µL) was: 0.4 µM Caf1/CNOT7, 1 µM Flc-RNA substrate, 20 mM Tris–HCl pH 7.9, 50 mM NaCl, 2 mM MgCl2, 10% glycerol, 1 mM β-mercaptoethanol and 5% DMSO. After incubation at 30 °C for 60 min, 10 µL probe mix (5 µM TAMRA-DNA probe, 1% SDS and 20 mM Tris–HCl pH 8.0, 0.5 mM EDTA) was added. Fluorescence intensity was measured using a BioTek Synergy HT plate reader (Agilent, Cheshire, UK) using the filters 485 ± 20 nm (excitation) and 528 ± 20 nm (emission). Raw data were analysed in Microsoft Excel and non-linear regression was carried out using GraphPad Prism 6. Statistical analysis (one-way ANOVA with post-hoc Dunnett’s test) was also carried out using GraphPad Prism.

[2] = biological target: T1, human nuclease enzyme Caf1/CNOT7; set-up: method as in PMID 24170810; conditions: n = 3; read-out: originally reported IC50 versus Caf1/CNOT7; cited from earlier work
Caf1/CNOT7 = test system: Caf1/CNOT7; set-up: method as in PMID 24170810; conditions: cited from earlier work

T1 sequence (Q9UIV1 whole entry): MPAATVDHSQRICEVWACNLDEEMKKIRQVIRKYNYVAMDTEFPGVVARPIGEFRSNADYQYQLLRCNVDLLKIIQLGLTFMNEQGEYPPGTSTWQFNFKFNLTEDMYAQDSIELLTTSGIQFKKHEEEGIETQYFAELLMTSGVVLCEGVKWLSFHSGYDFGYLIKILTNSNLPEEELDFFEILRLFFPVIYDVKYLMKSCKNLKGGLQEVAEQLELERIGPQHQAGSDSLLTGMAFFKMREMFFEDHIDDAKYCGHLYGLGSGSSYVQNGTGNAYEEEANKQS

CCOC(=O)c1ccc(-n2cc(C(=O)c3cc(Br)ccc3O)cc(C#N)c2=O)cc1 [Compound 9]
IC50 [1]: 33.2 ± 0.5 µM

COc1cc(Cl)c(C)cc1-n1cc(C(=O)c2cc(Br)ccc2O)cc(C#N)c1=O
IC50 [2]: 14.6 ± 3.1 µM

COc1ccc(-n2cc(C(=O)c3cc(Br)ccc3O)cc(C#N)c2=O)cc1 [Compound 5]
IC50 [1]: 81.1 ± 5 µM

COc1cc(Cl)c(C)cc1-n1cc(C(=O)c2cc(Br)ccc2O)cc(C#N)c1=O [Compound 1, 5-(5-bromo-2-hydroxybenzoyl)-1-(4-chloro-2-methoxy-5-methylphenyl)-2-oxo-1,2-dihydropyridine-3-carbonitrile]
activity in gel-based assay (Caf1/CNOT7): confirmed | selectivity (Caf1/CNOT7): selective to Caf1/CNOT7 | IC50 [1]: 24.1 ± 3.3 µM

Cc1ccc(-n2cc(C(=O)c3cc(Br)ccc3O)cc(C#N)c2=O)cc1 [Compound 14]
IC50 [1]: 57.5 ± 4.7 µM

Cc1cccc(-n2cc(C(=O)c3cc(Br)ccc3O)cc(C#N)c2=O)c1 [Compound 15]
IC50 [1]: 31.8 ± 1.8 µM

CCc1ccc(-n2cc(C(=O)c3cc(Br)ccc3O)cc(C#N)c2=O)cc1 [Compound 7]
IC50 [1]: 39 ± 2.6 µM

N#Cc1cc(C(=O)c2cc(Br)ccc2O)cn(-c2cccc(C(F)(F)F)c2)c1=O [Compound 10]
IC50 [1]: 42.1 ± 1.4 µM

COc1cc(Cl)c(C)cc1-n1cc(C(=O)c2cc(F)ccc2O)cc(C#N)c1=O [Compound 11]
IC50 [1]: 33.6 ± 1.1 µM | fold lower potency compared to 1 [1]: < 2 fold

N#Cc1cc(C(=O)c2cc(Br)ccc2O)cn(-c2ccccc2Cl)c1=O [Compound 3]
IC50 [1]: 65.6 ± 3.3 µM

COc1ccccc1-n1cc(C(=O)c2cc(Br)ccc2O)cc(C#N)c1=O [Compound 6]
IC50 [1]: 80.9 ± 9.2 µM

N#Cc1cc(C(=O)c2cc(Br)ccc2O)cn(-c2ccc(Cl)cc2)c1=O [Compound 8]
IC50 [1]: 32.2 ± 1.6 µM

Cc1ccccc1-n1cc(C(=O)c2cc(Br)ccc2O)cc(C#N)c1=O [Compound 16]
IC50 [1]: 44.5 ± 3.6 µM

N#Cc1cc(C(=O)c2cc(Br)ccc2O)cn(-c2ccc(F)c(Cl)c2)c1=O [Compound 13]
IC50 [1]: 47 ± 2.7 µM

N#Cc1cc(C(=O)c2cc(Br)ccc2O)cn(-c2ccccc2Oc2ccccc2)c1=O [Compound 4]
IC50 [1]: 39.3 ± 1.6 µM

N#Cc1cc(C(=O)c2cc(Br)ccc2O)cn(-c2ccccc2)c1=O [Compound 12]
IC50 [1]: 108 ± 4 µM | fold lower potency compared to 1 [1]: 4–5 fold

N#Cc1cc(C(=O)c2cc(Br)ccc2O)cn(-c2cc(Cl)cc(Cl)c2)c1=O [Compound 17]
IC50 [1]: 19.2 ± 1.1 µM
